Test results taken from article PMC3280530, “Marine Compounds Selectively Induce Apoptosis in Female Reproductive Cancer Cells but Not in Primary-Derived Human Reproductive Granulosa Cells” (Marine Drugs, 2012).

Experiments:
[1] = test system: primary-derived human reproductive granulosa cells (HGC); assay: TUNEL staining (apoptosis); format: cell-based
Procedure: (§1) Primary-derived human granulosa cells and KGN cells were plated into Nunc Lab-Tek II CC2 Chamber Slides at 30,000 cells per chamber well in a final volume of 0.3 mL of DMEM/F12 + 10% FBS complete cell culture medium and incubated for 24 h at 37 °C + 5% CO2 to allow cell attachment to slides. Spent media (media deficient of nutrients and serum) and non-viable and non-adherent cellswere discarded and replaced with the D. orbita fractions at concentrations of 0.005, 0.01 and 0.05 mg/mL in a final volume of 0.3 mL of DMEM/F12 + 10% medium. A medium-only and a 1% DMSO control were also added before incubation for 4 and 24 h at 37 °C + 5% CO2. This experiment was repeated on three separate occasions (n = 3). The supernatant was removed and the cells rinsed with PBS before fixation with 4% paraformaldehyde for 25 min at room temperature. The DeadEnd™ Fluorometric TUNEL System (Promega) was performed as recommended by the manufacturer. Briefly the cells were treated with 0.2% Triton X-100 for 5 min, to permeablize the cells. The cells were rinsed in PBS before the addition of 50 μL of rTdT incubation buffer (Promega) at 37 °C for 1 h, protected from light. Cells were rinsed in 2× sodium chloride and sodium citratesolution (Promega) for 15 min at room temperature (25 °C) then rinsed again with PBS. The cells were counter-stained with 1 μg/mL propidium iodide (PI). A separate positive control slide of 1 μg/mL DNase I, and a negative control slide of buffer without rTdT, was prepared in conjunction with treatment slides. Cells were examined immediately and photographed at 200 and 400× magnification using a Fluorescence Olympus BX50 Microscope with filter Chroma 31001 at excitation 450–495 nm, Dichroic 505 and emission 515–555 nm for the green fluorescein of TUNEL and Chroma 31002 at excitation 515–550 nm, Dichroic 565 and emission 575–615 nm for the red fluorescence of the PI staining. Photomicrographs of four fields of view were taken for each treatment in each repeat of theassay and the number of TUNEL positive nuclei, stained bright green, were calculated as a fraction of the total number of PI stained nuclei, stained bright red, in each image. The average of the four fields was then calculated.

KGN cells [2] = assay: MTT cell viability assay; format: cell-based, human
Procedure: (§2) For cell assays, the D. orbita fractions were prepared fresh on the day of the experiment by dissolving in dimethyl sulfoxide (DMSO; 100%) at 100× the final concentration. These were diluted to a range of working concentrations (0.001–0.5 mg/mL) in complete cell assay medium to give a final working concentration per well of 1% DMSO. All samples were filtered through a […] (Sartorius) filter before use.
(§3) The primary-derived granulosa cells, along with the KGN, JAr and OVCAR-3 cell lines (10,000 cells per well) were plated into sterile white (opaque) 96-well plates (Interpath) and clear sterile 96-well plates (Interpath) in 0.1 mL per well of complete cell culture medium for 24 h (granulosa, KGN and OVCAR-3 cells) and 2 h (for JAr cells) to allow cell adherence. Standard curves of 0–40,000 cells per well (primary granulosa cells) and 0–80,000 cells per well (for KGN, JAr and OVCAR-3 cells) in six replicate wells were plated into clear 96-well plates, alongside the test plates. After the initial cell adherence period, spent media (media deficient of nutrients and serum) were discarded and primary-derived granulosa, KGN, JAr and OVCAR-3 cells were treated with the two D. orbita fractions at concentrations of 0.005, 0.01, 0.05, 0.1, and 0.5 mg/mL in a final volume of 0.1 mL per well in triplicate wells, for 4 and 24 h at 37 °C + 5% CO2. 1 h prior to the end of eachincubation period two positive controls were added; one for apoptosis (1 μg/mL DNase I), and the second for necrosis (2 μL per well of a cell lysis buffer; Promega). This experiment was repeated on three separate occasions (n = 3).
(§4) After 4, 24, 48 and 72 h exposure to D. orbita fractions in clear 96-well plates, media and all dead unattached cells were removed. The remaining adherent cells were rinsed with sterile 1× PBS and the MTT assay was performed. The MTT assay measures the reduction of a yellow substrate to formazan, a purple precipitate, by the mitochondrial succinate dehydrogenase enzymes. A solution of 0.5 mg/mL MTT (was added to wells in a final volume of 0.1 mL. The plates were then incubated for 1 h (JAr cells) and 18 h (KGN, OVCAR-3 and GC cells) at 37 °C and 5% CO2. At the end of the incubation period, 80 μL/well 20% SDS in 0.02 M HCl was added and plate was incubated for a further 1 h at room temperature in the dark. The absorbance was the measured at 570 nm, with reference absorbance 630 nm, using an automatic spectrophotometer using KC Junior software. This assay was repeated on three separate occasions (n = 3).

OVCAR-3 cells [3] = assay: MTT cell viability assay; format: cell-based, human; conditions: OVCAR-3, MTT
Procedure: as §2, §3, §4

KGN cells [4] = assay: TUNEL staining (apoptosis); format: cell-based, human
Procedure: as §1

KGN cells [5] = assay: LDH membrane integrity assay (necrosis); format: cell-based, human; conditions: exposure time not stated at the place (4 and 24 h tested)
Procedure: as §3
(§5) After 4 and 24 h exposure to the D. orbita fractions in opaque 96-well plates, a combined membrane integrity and caspase 3/7 assay were performed on the primary-derived granulosa cells and KGN cells. The CytoTox-ONE Homogeneous Membrane Integrity Assay kit (Promega) was applied according to the manufacturer’s instructions. After the fluorescence was read at 535EX/590EM, the Caspase-Glo 3/7® assay (Promega) was applied to the primary granulosa cells and KGN cells according to the manufacturer’s instructions for1h and the plates were read on full light to capture total luminescence. The LDH-membrane integrity assay alone was performed on the JAr and OVCAR-3 cells using the CytoTox-ONE Homogeneous Membrane Integrity Assay kit (Promega). This assay was repeated on three separate occasions (n = 3).

OVCAR-3 cells [6] = assay: LDH membrane integrity assay (necrosis); format: cell-based, human; conditions: OVCAR-3, exposure time not stated at the place (4 and 24 h tested)
Procedure: as §3, §5

JAr cells [7] = assay: LDH membrane integrity assay (necrosis); format: cell-based, human; conditions: exposure time not stated at the place (4 and 24 h tested)
Procedure: as §3, §5

[8] = test system: caspase-3 and -7 activity in KGN cells; assay: Caspase-Glo 3/7 assay; format: cell-based, human
Procedure: as §3, §5

[9] = test system: caspase-3 and -7 activity in HGC; assay: Caspase-Glo 3/7 assay; format: cell-based, human; conditions: 4 h treatment
Procedure: as §3, §5

KGN cells [10] = assay: Crystal violet cell viability assay; format: cell-based; conditions: Homo sapiens
Procedure: as §2, §3
(§6) After 4 and 24 h exposure to D. orbita fractions in clear 96-well plates, media and all dead unattached cells were removed. The remaining adherent cells were rinsed with sterile 1× PBS and the crystal violet assay was performed. The crystal violet assay is a colourmetric assay in which only the nuclei of live cells take up the crystal violet stain (0.5%). The absorbance in the wells of the crystal violet plates were read on an automatic spectrophotometer at 570 nm, with reference absorbance 630 nm using KC Junior Software. This assay was repeated on three separate occasions (n = 3).

OVCAR-3 cells [11] = assay: Crystal violet cell viability assay; format: cell-based; conditions: Homo sapiens, OVCAR-3, crystal violet
Procedure: as §2, §3, §6

JAr cells [12] = assay: Crystal violet cell viability assay; format: cell-based; conditions: Homo sapiens
Procedure: as §2, §3, §6

[13] = test system: primary-derived human reproductive granulosa cells (HGC); assay: Crystal violet cell viability assay; format: cell-based
Procedure: as §2, §3, §6

JAr cells [14] = assay: MTT cell viability assay; format: cell-based; conditions: Homo sapiens
Procedure: as §2, §3, §4

[15] = test system: primary-derived human reproductive granulosa cells (HGC); assay: MTT cell viability assay; format: cell-based; conditions: Homo sapiens, HGC, MTT
Procedure: as §2, §3, §4

[16] = test system: primary-derived human reproductive granulosa cells (HGC); assay: LDH membrane integrity assay (necrosis); format: cell-based
Procedure: as §3, §5

With `O=C1Nc2cc(Br)ccc2C1=O` [6-Bromoisatin, 6-bromoisatin] the TUNEL positive cells ([1]; 4 h, 0.05 mg/mL) was 27%, the TUNEL labelled cells ([1]; 24 h, 0.005 mg/mL) was 10% and the IC50 (KGN cells [2]; 72 h) was < 22 µM. It also gave an IC50 (KGN cells [2]; Homo sapiens, 4 h) of 178 µM, an IC50 (KGN cells [2]; Homo sapiens, 24 h) of 446 µM and an IC50 (KGN cells [2]; Homo sapiens, 48 h) of 22 µM. The IC50 (KGN cells [2]; Homo sapiens, 72 h) was 22 µM, the IC50 (OVCAR-3 cells [3]; Homo sapiens, OVCAR-3, 4 h, 4 h) was 402 µM and the IC50 (OVCAR-3 cells [3]; Homo sapiens, OVCAR-3, 24 h, 24 h) was 446 µM. For the same molecule, the IC50 (OVCAR-3 cells [3]; Homo sapiens, OVCAR-3, 48 h, 48 h) was 89 µM, the IC50 (OVCAR-3 cells [3]; Homo sapiens, OVCAR-3, 72 h, 72 h) was 22 µM and the IC50 (OVCAR-3 cells [3]; 72 h) was < 22 µM. The TUNEL positive cells (KGN cells [4]; 4 h, 0.05 mg/mL) was 58%, the TUNEL labelled cells (KGN cells [4]; 24 h, 0.005 mg/mL) was 53% and the “concentration at which LDH release significantly increased” value (KGN cells [5]) was 446 µM. For the same molecule, the “concentration at which LDH release significantly increased” value (OVCAR-3 cells [6]) was 446 µM, the “concentration at which LDH release significantly increased” value (JAr cells [7]) was 446 µM and the “concentration at which caspase-3 and -7 activity (apoptosis) significantly increased” value ([8]; 4 h treatment) was 22 µM. The “change of caspase-3 and 7 activity” value ([8]; 24 h, 22–2232 µM (0.005–0.5 mg/mL), dose-dependent) was “significantly decreased”, the “concentration at which caspase-3 and -7 activity was detected” value [9] was 0.1 mg/mL and the IC50 (KGN cells [10]; 4 h) was 892 µM. For the same molecule, the IC50 (KGN cells [10]; 24 h) was 223 µM, the IC50 (OVCAR-3 cells [11]; 4 h) was 446 µM and the IC50 (OVCAR-3 cells [11]; 24 h) was 268 µM. For the same molecule, the IC50 (JAr cells [12]; 4 h) was 223 µM, the IC50 (JAr cells [12]; 24 h) was 178 µM and the IC50 ([13]; 4 h) was > 2230 µM. The IC50 ([13]; 24 h) was > 2230 µM, the IC50 (JAr cells [14]; 4 h) was 223 µM and the IC50 (JAr cells [14]; 24 h) was 446 µM. The IC50 (JAr cells [14]; 48 h) was 446 µM, the IC50 ([15]; 4 h) was > 4460 µM and the IC50 ([15]; 24 h) was > 4460 µM. For the same molecule, the IC50 ([15]; 48 h) was 1780 µM, the IC50 ([15]; 72 h) was 2230 µM and the “concentration required to cause LDH release (necrosis)” value ([16]; 4 h exposure) was 2232 µM. The “concentration required to cause LDH release (necrosis)” value ([16]; 24 h exposure) was 2232 µM.
